# Values of other authors in US8822536B2, “Dietary supplements containing terpenoid acids of maslinic acid or oleanolic acid and process for enhancing muscle mass in mammals” (FHG Corporation d/b/a Integrity Nutraceuticals, priority 2009, dated 2014).
# Key:
# glycogen phosphorylase = target: T1, glycogen phosphorylase (Oryctolagus cuniculus, UniProt P00489)
# T1 sequence (P00489 2-843 limits assumed): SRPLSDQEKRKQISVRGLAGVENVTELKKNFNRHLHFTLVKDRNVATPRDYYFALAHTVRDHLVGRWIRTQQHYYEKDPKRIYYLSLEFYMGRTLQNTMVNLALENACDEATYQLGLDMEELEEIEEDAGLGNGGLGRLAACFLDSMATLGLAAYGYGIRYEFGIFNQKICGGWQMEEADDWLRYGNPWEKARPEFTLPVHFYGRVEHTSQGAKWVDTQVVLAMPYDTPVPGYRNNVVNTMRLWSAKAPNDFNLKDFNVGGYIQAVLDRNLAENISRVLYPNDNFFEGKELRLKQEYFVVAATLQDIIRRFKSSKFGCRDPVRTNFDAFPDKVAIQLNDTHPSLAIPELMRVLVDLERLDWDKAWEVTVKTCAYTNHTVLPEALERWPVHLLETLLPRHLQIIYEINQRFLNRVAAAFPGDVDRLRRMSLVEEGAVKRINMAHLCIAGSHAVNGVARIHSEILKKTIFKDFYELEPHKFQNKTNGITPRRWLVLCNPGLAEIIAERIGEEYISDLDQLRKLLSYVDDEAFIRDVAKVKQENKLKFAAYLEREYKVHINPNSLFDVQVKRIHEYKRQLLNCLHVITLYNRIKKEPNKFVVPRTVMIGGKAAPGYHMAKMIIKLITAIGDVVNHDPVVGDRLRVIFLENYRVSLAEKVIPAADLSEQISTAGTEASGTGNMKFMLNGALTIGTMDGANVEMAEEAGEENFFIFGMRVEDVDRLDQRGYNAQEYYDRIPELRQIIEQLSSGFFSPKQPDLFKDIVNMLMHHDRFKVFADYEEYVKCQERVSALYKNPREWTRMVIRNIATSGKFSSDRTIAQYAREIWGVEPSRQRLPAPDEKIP
# juvenile dentex fish = conditions: 80 mg kg-1
# [1] = trout fed 250 mg kg-1, with respect to a control
# [2] = trout fed 25 and 250 mg kg-1, white muscle
smiles,measurement,setting,value
"CC1(C)CC[C@]2(C(=O)O)CC[C@]3(C)C(=CC[C@@H]4[C@@]5(C)C[C@@H](O)[C@H](O)C(C)(C)[C@@H]5CC[C@]43C)[C@@H]2C1 [maslinic acid, 2-α,3-β-dihydroxyolean-12-en-28-oic acid]","protein degradation rate, relative (KD) and absolute (AD)","trout; dietary maslinic acid, trout",stimulated
same,protein synthesis,"trout; dietary maslinic acid, trout",induces higher protein synthesis
same,feed-efficiency ratio (FER),trout; [1],increased
same,protein-efficiency ratio (PER),trout; [1],increased
same,absolute protein-degradation rate (AD),trout; [2],only a minor increase
same,fractional protein-degradation rate (KD),trout; [2],no significant changes
same,protein-synthesis rate (KS and AS),trout; [2],increased
same,protein-accumulation rates (KG and AG),trout; trout fed with maslinic acid,high protein-accumulation rates
same,glycogen phosphorylase inhibition,glycogen phosphorylase,new type of glycogen phosphorylase inhibitor
same,growth of juvenile dentex fish,juvenile dentex fish,retard
same,accumulation of glycogen in liver,rainbow trout liver,high accumulation of glycogen
